# Patent US10028956B2, “Methods of treating various cancers using an AXL/cMET inhibitor in combination with other agents” (Ignyta, Inc., priority 2013, dated 2018)
# Assays:
# [1] = molecular target: T1, AXL (Homo sapiens, UniProt P30530); assay: Cellular potency in NCI-H1299 human NSCL cells; assay type: cell-based; set-up: endogenous in cells; host or cells: NCI-H1299 human NSCLC cells (culture; subcutaneous xenograft in mice)
# T1 sequence (P30530 26-894): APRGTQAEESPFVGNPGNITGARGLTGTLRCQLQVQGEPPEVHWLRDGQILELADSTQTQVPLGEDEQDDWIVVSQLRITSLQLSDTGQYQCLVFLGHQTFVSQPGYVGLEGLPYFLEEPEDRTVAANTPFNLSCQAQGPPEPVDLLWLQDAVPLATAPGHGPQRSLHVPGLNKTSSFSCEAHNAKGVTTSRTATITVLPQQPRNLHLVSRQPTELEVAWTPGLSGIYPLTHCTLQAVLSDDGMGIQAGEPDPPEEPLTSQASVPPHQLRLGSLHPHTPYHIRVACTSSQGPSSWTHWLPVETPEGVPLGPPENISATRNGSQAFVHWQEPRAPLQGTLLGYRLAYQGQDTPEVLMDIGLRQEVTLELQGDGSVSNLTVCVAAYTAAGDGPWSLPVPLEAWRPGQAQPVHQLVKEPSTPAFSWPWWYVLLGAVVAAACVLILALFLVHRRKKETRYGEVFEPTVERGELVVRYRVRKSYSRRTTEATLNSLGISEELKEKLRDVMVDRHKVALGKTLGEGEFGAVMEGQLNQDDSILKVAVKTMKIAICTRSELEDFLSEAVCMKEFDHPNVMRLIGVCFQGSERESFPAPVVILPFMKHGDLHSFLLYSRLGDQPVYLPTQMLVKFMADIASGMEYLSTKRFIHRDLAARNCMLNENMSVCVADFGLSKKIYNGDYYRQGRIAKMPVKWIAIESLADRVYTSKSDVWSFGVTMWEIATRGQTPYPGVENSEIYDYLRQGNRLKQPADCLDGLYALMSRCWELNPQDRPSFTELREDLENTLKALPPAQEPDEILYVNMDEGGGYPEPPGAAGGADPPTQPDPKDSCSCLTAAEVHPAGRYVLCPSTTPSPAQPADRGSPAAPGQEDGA
# [2] = molecular target: T1, AXL; assay: AXL enzyme inhibition (recombinant enzyme); assay type: biochemical
# [3] = test system: EBC-1 Human NSCLC xenografts; assay: Anti-tumor efficacy in EBC-1 NSCLC xenografts; assay type: in vivo, mice
# Description: The human NSCL cancer cell line, EBC-1 was purchased from ATCC (American Tissue Culture Collection, Manassas, Va.) and cultured in DMEM medium with 10% fetal bovine serum (FBS, Cat# SH3007003, Hyclone Laboratory Inc, Logan, Utah). Female Nu/Nu mice (6-8 weeks, Charles River Laboratory, Wilmington, Mass.) were maintained 5/cage in microisolator units on a standard laboratory diet (Teklad Labchow, Harlan Teklad, Madison, Wis.). Animals were housed under humidity- and temperature-controlled conditions and the light/dark cycle was set at 12-hour intervals. Mice were quarantined at least 1 week prior to experimental manipulation. […] The mice were then monitored daily. […] The length (L) and width (W) of each tumor was measured with a vernier caliper and the mouse body weight was determined every 2-3 days. The tumor volumes were then calculated with the formula of 0.5236*L*W*(L+W)/2. […] Plasma and tumor samples were obtained at 2 hours post final dose at each dose level, and the compound levels in plasma and tumor lysates were measured by LC-MS/MS. The TGI values were calculated at the end of study by comparing the tumor volumes (TV) of each CEP-40783-treatment group with those of vehicle-treated group with the following formula: 1-(the last day TV of compound-treated group/the last day TV of vehicle-treated group).
# [4] = molecular target: T2, c-Met (Homo sapiens, UniProt P08581); assay: Dissociation from c-Met, LanthaScreen Eu-kinase binding assay
# T2 sequence (P08581 25-1390): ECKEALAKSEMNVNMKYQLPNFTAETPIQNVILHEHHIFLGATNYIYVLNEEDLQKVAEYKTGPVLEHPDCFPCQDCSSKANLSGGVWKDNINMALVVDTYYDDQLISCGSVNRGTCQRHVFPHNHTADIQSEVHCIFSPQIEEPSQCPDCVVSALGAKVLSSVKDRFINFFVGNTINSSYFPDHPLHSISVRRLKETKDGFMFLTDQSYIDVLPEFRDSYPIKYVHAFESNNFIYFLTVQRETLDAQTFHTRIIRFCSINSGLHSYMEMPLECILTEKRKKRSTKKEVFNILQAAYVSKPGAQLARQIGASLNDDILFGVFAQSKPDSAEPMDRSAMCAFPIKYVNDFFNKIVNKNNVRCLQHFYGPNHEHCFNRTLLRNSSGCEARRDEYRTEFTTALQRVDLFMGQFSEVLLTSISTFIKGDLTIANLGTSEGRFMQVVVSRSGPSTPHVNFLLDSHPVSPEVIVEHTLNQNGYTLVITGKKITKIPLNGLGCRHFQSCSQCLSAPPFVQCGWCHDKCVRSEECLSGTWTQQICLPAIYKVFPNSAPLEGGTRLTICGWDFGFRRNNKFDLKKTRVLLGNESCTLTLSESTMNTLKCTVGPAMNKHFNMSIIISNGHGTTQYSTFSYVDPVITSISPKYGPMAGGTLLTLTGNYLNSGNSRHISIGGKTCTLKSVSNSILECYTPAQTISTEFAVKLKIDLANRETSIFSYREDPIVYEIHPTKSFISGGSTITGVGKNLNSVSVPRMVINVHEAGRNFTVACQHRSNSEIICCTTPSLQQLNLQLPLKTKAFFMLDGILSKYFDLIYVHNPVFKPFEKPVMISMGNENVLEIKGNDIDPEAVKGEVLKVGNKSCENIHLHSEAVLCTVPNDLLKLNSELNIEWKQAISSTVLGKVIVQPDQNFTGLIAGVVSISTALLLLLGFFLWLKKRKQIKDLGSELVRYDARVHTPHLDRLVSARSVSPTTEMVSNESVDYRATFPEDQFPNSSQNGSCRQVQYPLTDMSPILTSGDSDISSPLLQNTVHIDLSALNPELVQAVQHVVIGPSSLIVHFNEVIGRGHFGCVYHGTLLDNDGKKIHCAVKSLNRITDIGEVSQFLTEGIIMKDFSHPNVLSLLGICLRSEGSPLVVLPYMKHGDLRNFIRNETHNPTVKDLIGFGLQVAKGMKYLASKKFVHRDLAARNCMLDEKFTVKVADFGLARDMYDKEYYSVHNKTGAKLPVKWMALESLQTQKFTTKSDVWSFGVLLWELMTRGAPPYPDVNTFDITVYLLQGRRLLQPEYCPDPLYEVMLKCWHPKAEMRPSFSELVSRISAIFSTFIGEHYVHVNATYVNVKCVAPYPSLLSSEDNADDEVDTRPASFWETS
# Description: Assay buffer was prepared as for association, and used for all dilutions. A 5-μL aliquot of 80 nM LanthaScreen Eu-anti-GST antibody:20 nM GST-tagged enzyme mix was added to the Greiner low volume white 384-well plate, with antibody only added to control wells. Compound (100 nL) in DMSO was added by pintool at 2000-fold over the final assay concentration. DMSO was added to no inhibitor control wells. After a one-hour incubation at ambient temperature to allow formation of the enzyme-inhibitor complex, 2 μL of the reaction mix was transferred to a 384 Optiplate (PerkinElmer) and 78 μL of kinase tracer 236 was added. The final tracer concentration was 100 nM for AXL and 200 nM for c-Met. Readings were immediately initiated and total of 60 time points were taken at 2-min intervals, at 25° C. or 37° C. The background subtracted ratio was normalized to the no inhibitor control to calculate the % tracer bound, which was plotted with respect to time. The data was fitted to the one phase association model in GraphPad Prism (La Jolla Calif.).
# [5] = test system: EBC-1 Human NSCLC xenografts; assay: Discontinuous and alternate dosing schedules in EBC-1 xenografts; assay type: in vivo, mice; settings: 10 mg/kg oral
# Description: After a period of 7 days of continuous dosing, animals were then switched to either a 7 day on/7 day off 10 mg/kg qd dosing regimen, or intermittent twice weekly (q2d) or thrice weekly (q3d) oral dosing at a 10 mg/kg qd dose for a total of 21 days.
# [6] = molecular target: T2, c-Met; assay: c-Met enzyme inhibition; assay type: biochemical
# [7] = PK in dog; settings: in vivo
# [8] = intravenous, 0.5 mg/kg i.v. and p.o.
structure (smiles),measurement,setting,value
"COc1cc2nccc(Oc3ccc(NC(=O)c4cn(C(C)C)c(=O)n(-c5ccc(F)cc5)c4=O)cc3F)c2cc1OC [CEP-40783, 3-(4-Fluorophenyl)-1-isopropyl-2,4-dioxo-1,2,3,4-tetrahydropyrimidine-5-carboxylic acid [4-(6,7-dimethoxyquinolin-4-yloxy)-3-fluorophenyl]-amide]",IC50,[1],0.1 nM
same,IC50,[2],7 nM
same,anti-tumor efficacy (tumor volume),[3]; 3 mg/kg oral qd,tumor stasis and partial regressions
same,anti-tumor efficacy (tumor volume),[3]; 10 mg/kg and 30 mg/kg oral qd,tumor regressions
same,off-rate from c-Met,[4]; 25° C.,very slow
same,dissociation rate from c-Met at higher temperature,[4]; 37° C. versus 25° C.,slightly enhanced
same,partial responses,[5]; every 2 days (q2d),40%
same,partial responses,[5]; every 3 days (q3d),70%
same,"complete tumor regressions, % of animals",[5]; q2d dosing group,20%
same,partial responses,"[5]; qd, 7 days on/7 days off (qd×7)",40%
same,"complete tumor regressions, % of animals",[5]; qd×7 dosing group,10%
same,IC50,[6],12 nM
same,Cmax,[7]; 0.5 mg/kg i.v. and p.o.,1170 ng/mL
same,Vd,[7]; [8],1.3 L/kg
same,clearance,[7]; [8],0.5 mL/min/kg
same,half-life,"[7]; iv, 0.5 mg/kg i.v., read-out: t1/2 i.v. (converted)",27.6 h
same,bioavailability,"[7]; oral, 0.5 mg/kg i.v. and p.o.",100%
same,AUC(0-t),"[7]; po, 0.5 mg/kg p.o.",14400 ng·h/mL
